Results from ChEMBL document CHEMBL1122770, “Quantitative structure-activity relationship of insect juvenile hormone mimetic compounds” (J Med Chem, 1984).

Key:
Tenebrio molitor [1] = assay: Tested for juvenile hormone mimetic activity in Tenebrio molitor (yellow mealworm) excluding from the analysis for activity against […]); assay type: functional
[2] = Partition coefficient (logP); assay type: physicochemical; details: octanol/water; read-out: logP
Tenebrio molitor [3] = assay: Tested for juvenile hormone mimetic activity in Tenebrio molitor (yellow mealworm) excluding from the analysis for activity against Tenebrio molitor; assay type: functional; set-up: unit not given here
Tenebrio molitor [4] = assay: Tested for juvenile hormone mimetic activity in Tenebrio molitor (yellow mealworm) excluding from the analysis for activity against Anopheles aegypti; assay type: functional
Tenebrio molitor [5] = assay: Tested for juvenile hormone mimetic activity in Tenebrio molitor (yellow mealworm) excluding from the analysis for activity against Aedes aegypti, Tenebrio molitor

logP [2]	SMILES	pI50 (Tenebrio molitor [1]) [uM pupa-1]	pI50 (Tenebrio molitor [3])	pI50 (Tenebrio molitor [4]) [uM pupa-1]	pI50 (Tenebrio molitor [5]) [uM pupa-1]
4.65	CCOC(=O)/C=C(C)/C=C/CC(C)CCCC(C)(C)O (centres undefined)	~0.54			
7.87	CC(/C=C/CC(C)CCCC(C)C)=C\C(=O)OCc1ccccc1 (centres undefined)		<0.52		
5.2	C#CCCOC(=O)/C=C(C)/C=C/CC(C)CCCC(C)(C)OC (centres undefined)		<1.11		
7.56	CC(/C=C/CC(C)CCCC(C)C)=C\C(=O)OC(C)(C)C (centres undefined)				1.01

More lines, now with the values behind:

SMILES	logP [2]	pI50 (Tenebrio molitor [1]) [uM pupa-1]	pI50 (Tenebrio molitor [3])	pI50 (Tenebrio molitor [4]) [uM pupa-1]	pI50 (Tenebrio molitor [5]) [uM pupa-1]
CCNC(=O)/C=C(C)/C=C/CC(C)CCCC(C)(C)O (centres undefined)	3.15			5.22	
CC(/C=C/CC(C)CCCC(C)C)=C\C(=O)C1N=N1 (centres undefined)					5.15
CC(/C=C/CC(C)CCCC(C)C)=C\C(=O)O (centres undefined)	5.95		<0.45		
COC(C)(C)CCCC(C)C/C=C/C(C)=C/C(=O)C1N=N1 (centres undefined)					6.12
